Measured values: patent US20080305186A1, “Method and Composition for the Treatment of Cardiac Hypertrophy” (BOARD OF REGENTS, THE UNIVERSITY OF TEXAS SYSTEM, priority 2007, published 2008)
Entries after “also recorded” stand apart in the source; their conditions may differ.

Columns and labels:
[1] = doxycycline co-administered with carbamazepine; cited from earlier work
[2] = system: isoproterenol induced cardiac hypertrophy; test: Isoproterenol-induced cardiac hypertrophy in mice: heart size, heart weight ratios, histology; assay type: in vivo, C57BL/6 male mice
Experimental: (§1) All animal and mouse studies and/or models of cardiac hypertrophy were conducted in accordance with the standards set forth in the Guide for the Care and Use of Laboratory Animals (NIH Publication No. 85-23, revised 1996) and were approved by our Institutional Animal Care and Use Committee. Eight week-old C57BL/6 male mice (Jackson Laboratory) were given isoproterenol (Sigma Aldrich) at 40 mg·kg^−1d^−1 administered S.Q. via micro-osmotic pump insertion (ALZET 1007D). Briefly, animals were anesthetized with isoflurane (1.5%) and oxygen (98.5%) using an animal ventilator (Surgivet), an incision (1 cm) was made on the back between the shoulder blades, and micro-osmotic pumps containing isoproterenol dissolved in a saline solution (0.9% NaCl) were inserted into the infrascapular subcutaneous tissue.
Doxycycline was given in drinking water at 6 mg mL^−1 (Sigma Aldrich) containing 5% sucrose unless specified otherwise. Control animals were given 5% sucrose water. […] Water was added to the mix 0.8:1 (water weight to powder weight ratio) and the resulting paste diced and heated at 60° C. overnight.
Histology. Animal hearts were excised, fixated with 10% phosphate-buffered formalin for 48 hours, and then embedded in paraffin. Cross-sectional slices in the minor axis were obtained with a microtome and the slices stained using Mayer's hematoxylin and eosin (H&E).
Statistical analysis of the data includes values presented are expressed in mean ±S.E.M. All comparisons between groups were performed using a one way ANOVA followed by the Newman-Keuls test. Differences were considered to be statistically significant when P<0.05.
P-values are obtained from a one way ANOVA. […] The control group (isoproterenol) received regular chow and 7% sucrose water. Each circle is the Heart to Body weights ratio obtained for a mouse, while the dashes are the average for each group.

[3] = system: positive chronotropic effect induced by isoproterenol; test: Heart rate of isoproterenol-treated mice; assay type: in vivo; conditions: day 9 of treatment, vs isoproterenol-only mice; n=5; FIG. 5
Experimental: as §1
Doxycycline was given in drinking water at 6 mg mL^−1 (Sigma Aldrich) containing 5% sucrose unless specified otherwise. Control animals were given 5% sucrose water. […] Briefly, chow was crunched in powder and then mixed with carbamazepine. […]
The heart rates of the mice were measured before induction of cardiac hypertrophy and after treatment on day 9, which was 1 day before they were sacrificed. […] Heart rates were measured before the experiment (t0) and 1 day before the sacrifice. […]

CREB = test: Western blot of phosphorylation status of CREB; assay type: in vivo; conditions: mice with isoproterenol-induced cardiac hypertrophy
Experimental: Western Blots. The antibodies for Adra1b and GAPDH were purchased from Santa Cruz Biochemical Co. (Santa Cruz, Calif.). All other antibodies were purchased from Cell Signaling Technology, and Western blot analysis was performed as previously described (21). Briefly, equal amounts of total protein were loaded and separated on sodium dodecyl sulfate (SDS)—10% polyacrylamide gels and then transferred to nitrocellulose membranes. Membranes were blocked with 5% milk and washed in 1× Tween (0.1%)—Tris-buffered saline (TTBS) three times for 5 minutes each. Primary antibodies diluted 1:1000 in 5% milk or bovine serum albumin (BSA) (prepared in 1×TTBS) were allowed to incubate overnight at 4° C. After washing, horseradish peroxidase (HRP)-conjugated secondary antibody (Cell Signaling Technology) was diluted 1:2000 in 5% milk and applied to membranes. Subsequently, membranes were washed and a chemiluminescence substrate (Pierce, Rockford Ill.) was applied and allowed to incubate at room temperature for 5 minutes.

[4] = cited from earlier work
adenylate cyclase = conditions: by inhibiting adenylate cyclase; cited from earlier work
Histone Deacetylase = conditions: cited from earlier work

**Q.** With `C[C@H]1c2cccc(O)c2C(=O)C2=C(O)[C@]3(O)C(=O)C(C(N)=O)=C(O)[C@@H](N(C)C)[C@@H]3[C@@H](O)[C@@H]21` [doxycycline] as the compound, how does the half-life [1] read?
**A.** shorter

**Q.** For `NC(=O)N1c2ccccc2C=Cc2ccccc21` [carbamazepine], which “hypertrophic phenotype, heart cross sections (histology)” value ([2]; isoproterenol mice, H&E cross sections, FIG. 2) is on record?
**A.** structure that is relatively well preserved; also recorded: reduced the hypertrophic phenotype

**Q.** And the “Heart to Body weights ratio” value ([2]; isoproterenol mice, 10 days, doxycycline 10 mg/mL in 7% sucrose water, carbamazepine […] in chow, FIG. 3, carbamazepine vs control P<0.01)?
**A.** significantly decreased

**Q.** What about the “Heart to Tibia length ratio” value ([2]; isoproterenol mice, carbamazepine in chow or doxycycline in water vs no drug, FIG. 1, carbamazepine vs control P<0.0001) of the same compound?
**A.** significantly lower; also recorded: significantly decreased

**Q.** What about the heart weight ([2]; single isoproterenol and carbamazepine treated mouse, FIG. 2C (untreated isoproterenol mouse 0.1800, wild type 0.1305)) of the same compound?
**A.** 0.1415 grams

**Q.** And the heart rate [3]?
**A.** significantly lower heart rates; also recorded: attenuation of the positive chronotropic effect

**Q.** What about the “levels of phosphorylated CREB” value (CREB) of the same compound?
**A.** Almost no phosphorylated CREB was detected

**Q.** What about the “blood pressure and heart rates” value ([4]; epileptic patients) of the same compound?
**A.** lower blood pressure and heart rates

**Q.** And the cardiovascular toxic effects ([4]; in vivo)?
**A.** no cardiovascular toxic effects

**Q.** And the “basal and forskolin-stimulated cAMP production” value (adenylate cyclase)?
**A.** abrogate both basal and forskolin-stimulated cAMP production

**Q.** What about the “inhibition of Histone Deacetylase (HDAC)” value (Histone Deacetylase) of the same compound?
**A.** inhibit Histone Deacetylase
